Test results reported in the supplement of paper PMC7244745.
Structures can show the parent of a compound that is named as a salt. ± gives the uncertainty stated by the source.

Experiments:
[1] = system: Klebsiella pneumoniae ATCC 13882; assay: rate of pH (A557-A630) increase, Gompertz fit (10^-4 s-1); higher = faster ureolysis; extreme values may be limits of the assay
Method: (§1)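 Klebsiella pneumoniae ATCC 13882 (start OD600 0.05) grown in M9U medium with 40 mM urea and phenol red plus inhibitor, in triplicate in 96-well plates. A557 and OD630 were read every 15 min for 24 h. Ureolysis was followed as the pH-related A557-A630: onset time, Gompertz-fit rate and final value. Growth was followed as OD630.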

[2] = system: Klebsiella pneumoniae ATCC 13882; assay: final OD630 (growth) after 24 h; higher = more bacterial growth; extreme values may be limits of the assay
Method: as §1

[3] = system: Klebsiella pneumoniae ATCC 13882; assay: onset of ureolytic pH increase; higher = more delayed ureolysis (inhibition)
Method: as §1

[4] = system: Klebsiella pneumoniae ATCC 13882; assay: final pH-related absorbance (A557-A630) after 24 h (absorbance units); higher = more ureolysis; extreme values may be limits of the assay
Method: as §1

SMILES	rate of pH ([1]; 0.1 mM)	rate of pH ([1]; 1 mM)	rate of pH ([1]; 10 mM)	final OD630 ([2]; 0.1 mM)	final OD630 ([2]; 1 mM)	final OD630 ([2]; 10 mM)	onset of ureolytic pH increase ([3]; 0.1 mM) [min]	onset of ureolytic pH increase ([3]; 1 mM) [min]	onset of ureolytic pH increase ([3]; 10 mM) [min]	final pH-related absorbance ([4]; 0.1 mM)	final pH-related absorbance ([4]; 1 mM)	final pH-related absorbance ([4]; 10 mM)	other results
CC(=NO)C(C)=NO [Dimethylglyoxime]													rate of pH ([1]; 0.03 mM): 2.093 ± 0.018; rate of pH ([1]; 0.3 mM): 1.96 ± 0.3; rate of pH ([1]; 3.01 mM): 0.0904 ± 0.0046; final OD630 ([2]; 0.03 mM): 0.443 ± 0.007; final OD630 ([2]; 0.3 mM): 0.377 ± 0.017; final OD630 ([2]; 3.01 mM): 0; onset of ureolytic pH increase ([3]; 0.03 mM): 573.9 ± 0.72 min; onset of ureolytic pH increase ([3]; 0.3 mM): 771 ± 36 min; onset of ureolytic pH increase ([3]; 3.01 mM): 0 min; final pH-related absorbance ([4]; 0.03 mM): 0.183 ± 0.0026; final pH-related absorbance ([4]; 0.3 mM): 0.142 ± 0.032; final pH-related absorbance ([4]; 3.01 mM): 0.466 ± 0.023
C=C(CC)C(=O)c1ccc(OCC(=O)O)c(Cl)c1Cl [Ethacrynic acid]	1.57 ± 0.073	1.49 ± 0.037	0.033 ± 0.0006	0.437 ± 0.0002	0.44 ± 0.0048	0	697.4 ± 3.6	754 ± 100	0	0.139 ± 0.0023	0.128 ± 0.018	0.294 ± 0.0059	
CC(O)(P(=O)(O)O)P(=O)(O)O [Etidronic acid monohydrate]	1.63 ± 0.035	1.597 ± 0.013	0	0.432 ± 0.0054	0.443 ± 0.0026	0	673.9 ± 2.3	672.1 ± 2.5	> 900	0.323 ± 0.0087	0.28 ± 0.005	0	
NC=O [Formamide]	2.01 ± 0.1	2.24 ± 0.1	2.188 ± 0.02	0.513 ± 0.0092	0.512 ± 0.0096	0.513 ± 0.008	550 ± 22	560 ± 15	572 ± 7.5	0.168 ± 0.021	0.172 ± 0.027	0.165 ± 0.021	
O=C(O)c1cc(O)c(O)c(O)c1 [Gallic acid monohydrate]													rate of pH ([1]; 0.056 mM): 2.0688 ± 0.0018; rate of pH ([1]; 0.56 mM): 1.8 ± 0.028; final OD630 ([2]; 0.056 mM): 0.454 ± 0.007; final OD630 ([2]; 0.56 mM): 0.45 ± 0.003; onset of ureolytic pH increase ([3]; 0.056 mM): 562.9 ± 3.7 min; onset of ureolytic pH increase ([3]; 0.56 mM): 617 ± 18 min; final pH-related absorbance ([4]; 0.056 mM): 0.19 ± 0.0003; final pH-related absorbance ([4]; 0.56 mM): 0.191 ± 0.028
N=C(N)N [Guanidine hydrochloride]	1.94 ± 0.086	2.02 ± 0.066	2.03 ± 0.17	0.498 ± 0.006	0.505 ± 0.006	0.503 ± 0.004	433 ± 6.4	425 ± 5.7	436 ± 12	0.249 ± 0.007	0.27 ± 0.011	0.286 ± 0.009	
Oc1ccc(O)cc1 [Hydroquinone]	1.78 ± 0.19	1.58 ± 0.096		0.408 ± 0.021	0.423 ± 0.038		680 ± 7.1	704 ± 40		0.155 ± 0.0064	0.157 ± 0.0044		
NC(=O)NO [Hydroxyurea]	1.89 ± 0.32	1.01 ± 0.031	0	0.483 ± 0.006	0.452 ± 0.031	0.262 ± 0.002	436 ± 6.5	442 ± 25	> 900	0.258 ± 0.007	0.198 ± 0.029	0	
c1c[nH]cn1 [Imidazole]	1.457 ± 0.0067	1.48 ± 0.046	1.43 ± 0.029	0.423 ± 0.0002	0.42 ± 0.0034	0.439 ± 0.0039	562.8 ± 3.5	565 ± 7.1	619.4 ± 3.2	0.163 ± 0.0003	0.164 ± 0.0067	0.169 ± 0.0015	
O=C(O)CNCC(=O)O [Iminodiacetic acid]													rate of pH ([1]; 0.008 mM): 2.086 ± 0.011; rate of pH ([1]; 0.08 mM): 2.13 ± 0.052; rate of pH ([1]; 0.802 mM): 1.82 ± 0.045; final OD630 ([2]; 0.008 mM): 0.44 ± 0.003; final OD630 ([2]; 0.08 mM): 0.429 ± 0.003; final OD630 ([2]; 0.802 mM): 0.373 ± 0.011; onset of ureolytic pH increase ([3]; 0.008 mM): 565.5 ± 3.2 min; onset of ureolytic pH increase ([3]; 0.08 mM): 562.6 ± 1.5 min; onset of ureolytic pH increase ([3]; 0.802 mM): 663 ± 19 min; final pH-related absorbance ([4]; 0.008 mM): 0.184 ± 0.004; final pH-related absorbance ([4]; 0.08 mM): 0.211 ± 0.017; final pH-related absorbance ([4]; 0.802 mM): 0.209 ± 0.007
N=C(N)NCCC[C@H](N)C(=O)O [L-arginine]													rate of pH ([1]; 0.094 mM): 1.72 ± 0.018; rate of pH ([1]; 0.943 mM): 1.69 ± 0.018; rate of pH ([1]; 9.43 mM): 1.66 ± 0.021; final OD630 ([2]; 0.094 mM): 0.472 ± 0.003; final OD630 ([2]; 0.943 mM): 0.52 ± 0.0037; final OD630 ([2]; 9.43 mM): 0.519 ± 0.0064; onset of ureolytic pH increase ([3]; 0.094 mM): 636.03 ± 0.24 min; onset of ureolytic pH increase ([3]; 0.943 mM): 558.6 ± 4.4 min; onset of ureolytic pH increase ([3]; 9.43 mM): 592.5 ± 2.5 min; final pH-related absorbance ([4]; 0.094 mM): 0.23 ± 0.0075; final pH-related absorbance ([4]; 0.943 mM): 0.238 ± 0.0024; final pH-related absorbance ([4]; 9.43 mM): 0.307 ± 0.0066
